The supplement of paper PMC11616607

Assays:
Experiment in all cases: drug sensitivity score (DSS) from 5-point dose-response viability curve (DSS (area-under-curve based score)); higher = more sensitive (stronger growth inhibition or killing); extreme values may be limits of the assay
Settings in all cases: exposure time: 72 h; concentration range: 5 concentrations over 10,000-fold range
[1] = tested on: OVCAR5
How it was run: (§1)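 Drug sensitivity scores were calculated in Breeze software for each cell line and drug pair; higher scores indicate more sensitivity. A score of zero indicates no response. The underlying assay used 384-well plates: drugs were placed by an Echo 550 acoustic dispenser at five concentrations spanning a 10,000-fold range, 1,500 ovarian cancer or normal ovarian cells were added per well, and cells were kept 3 days at 37°C, 5% CO2. Viability was then measured with CellTiter-Glo luminescence on a PHERAstar FS.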

[2] = tested on: Kuramochi
How it was run: as §1

[3] = tested on: Ovsaho
How it was run: as §1

[4] = tested on: HOSE2C
How it was run: as §1

[5] = tested on: HOSE1C
How it was run: as §1

[6] = tested on: OV90
How it was run: as §1

[7] = tested on: JHOS2
How it was run: as §1

[8] = tested on: OVCAR4
How it was run: as §1

[9] = tested on: COV318
How it was run: as §1

[10] = tested on: COV362
How it was run: as §1

[11] = tested on: CAOV3
How it was run: as §1

[12] = tested on: OVCAR8
How it was run: as §1

SMILES	drug sensitivity score [1]	drug sensitivity score [2]	drug sensitivity score [3]	drug sensitivity score [4]	drug sensitivity score [5]	drug sensitivity score [6]	drug sensitivity score [7]	drug sensitivity score [8]	drug sensitivity score [9]	drug sensitivity score [10]	drug sensitivity score [11]	drug sensitivity score [12]
Nc1ncnc2c1nc(Cl)n2[C@@H]1O[C@H](CO)[C@@H](O)[C@H]1O [8-chloro-adenosine]	11.9	5.1	18.5	3.5	0.5	3.7	9.4	8	3.7	7.6	11.2	13.2
CO[C@@H]1[C@H](N(C)C(=O)c2ccccc2)C[C@H]2O[C@]1(C)n1c3ccccc3c3c4c(c5c6ccccc6n2c5c31)C(=O)NC4 [Midostaurin]	5.3	7.2	14.1	15.1	11.7	12.7	9.7	8.5	8.1	5	17.7	7
C=CC(=O)N1CC/C(=C\c2ccc(F)c([N+](=O)[O-])c2)C(=O)/C(=C/c2ccc(F)c([N+](=O)[O-])c2)C1 [VLX1570]	17.1	18	25	21.4	23.3	16.8	17.5	18.7	12.2	9.4	18.7	26.8
CCCS(=O)(=O)Nc1ccc(F)c(C(=O)c2c[nH]c3ncc(-c4ccc(Cl)cc4)cc23)c1F [Vemurafenib]	0.5	0.3	0	1.1	0.4	0	0	0	0	0	0	0.5
C[C@@H]1CN(C(=O)c2ccc(NC(=O)c3cc(O[C@H](C)c4c(Cl)ccc(F)c4Cl)c(N)nn3)cc2)C[C@H](C)N1 [Ensartinib]	1.8	0	0	1.9	0.5	0.1	0	0	0	0	1.5	0
CN1C(=O)N[C@H](Cc2c[nH]c3c(Cl)cccc23)C1=O [Necrostatin 2]	0	0	0	0	0	0	0	0	0	0	0	0
Nc1nc(Cl)nc2c1ncn2[C@H]1C[C@H](O)[C@@H](CO)O1 [Cladribine]	2.1	0	0.1	0	0	1.6	3.1	0	0	0.1	4.2	9.8
C=CC(=O)N1CCC[C@@H](n2nc(-c3ccc(Oc4ccccc4)cc3)c3c(N)ncnc32)C1 [Ibrutinib]	3.1	2.8	2.5	0	0	0	0	1.5	0	0.5	3	0
CO[C@H]1C[C@@H]2CC[C@@H](C)[C@@](O)(O2)C(=O)C(=O)N2CCCC[C@H]2C(=O)O[C@H]([C@H](C)C[C@@H]2CC[C@@H](OP(C)(C)=O)[C@H](OC)C2)CC(=O)[C@H](C)/C=C(\C)[C@@H](O)[C@@H](OC)C(=O)[C@H](C)C[C@H](C)/C=C/C=C/C=C/1C [Ridaforolimus]	4.6	3.2	4.6	1	2.3	10.3	4.3	2.6	0.6	0	8.7	6.8
C[C@H]1C[C@@H]2[C@H]([C@@H](O)C[C@@]3(C)[C@H]2CC[C@]3(O)C(=O)CO)[C@@]2(C)C=CC(=O)C=C12 [Methylprednisolone]	0	0	1	0	0	0	0.7	0	1.3	1.2	0	0.2
O=c1sn(-c2cccc3ccccc23)c(=O)n1Cc1ccccc1 [Tideglusib]	0	0	0.1	0	0	0	0	0	0	0	0	0
CC[C@@H]1[C@H](F)C(=O)N[C@@H]1COc1nccc2cc(C(N)=O)c(OC)cc12	0.6	1.8	2.3	0	0	0.6	1.3	0.4	0	0	0.9	0.7
COc1cc(Nc2ncc(F)c(Nc3ccc4c(n3)NC(=O)C(C)(C)O4)n2)cc(OC)c1OC [Tamatinib]	4.5	1.5	3.8	6.2	0	0	0	0	0.3	0	0	0
CCN(CC)CCCC(C)Nc1c2ccc(Cl)cc2nc2ccc(OC)cc12 (stereo not drawn) [Mepacrine]	13.1	13.2	13.1	8.2	9.7	16	10.5	15.2	10.3	10.3	9.4	12.1
